Non-standard residues stand in square brackets, D forms with d. Residues, ends and D or L forms follow the SMILES beside them. ξ: configuration not given here. *: point of attachment. ξL = CC(C)CC(N)C(=O)O; CH2Cl = ClC*
Tests used:
[1] = target: chymotrypsin (Bos taurus, UniProt P00766); settings: inhibitor concentration 600 μg/mL; cited from earlier work
[2] = test system: human poliomyelitis virus type 2 or human rhinovirus type 1A; format: cell-based; parameters: key to Protease-Inhibiting Activity of Selected Peptide Chloromethyl Ketones: Activity: -: no activity; +/-: low activity; +: active at 100 μg/mL; ++: active at 50 μg/mL; +++: active at 10 μg/mL; ++++: active at <5 μg/mL
[3] = test system: human poliomyelitis virus type 2; format: cell-based; settings: test concentration 100 μg/mL
[4] = test system: human rhinovirus type 1A; format: cell-based; settings: test concentration 100 μg/mL
[5] = target: T1, subtilisin BPN' (Bacillus amyloliquefaciens, UniProt P00782); settings: cited from earlier work
T1 sequence (P00782 108-382): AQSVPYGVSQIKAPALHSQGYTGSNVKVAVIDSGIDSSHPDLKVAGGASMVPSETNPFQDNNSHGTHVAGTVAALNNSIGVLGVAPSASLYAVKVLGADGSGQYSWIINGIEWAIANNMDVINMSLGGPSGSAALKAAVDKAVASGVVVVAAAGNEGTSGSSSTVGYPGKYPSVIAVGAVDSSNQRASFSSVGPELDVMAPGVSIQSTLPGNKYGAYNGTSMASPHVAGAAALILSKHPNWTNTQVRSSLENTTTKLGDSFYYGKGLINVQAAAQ

[6] = test system: Poliovirus type 2; format: cell-based
[7] = test system: rhinovirus type 1A; format: cell-based
[8] = test system: HeLa cells

In the case of CC(=O)N[C@@H](CC(C)C)C(=O)N[C@@H](CC(C)C)C(=O)N[C@@H](Cc1ccccc1)C(C)=O [Ac-Leu-Leu-PheCH3], the inhibition of chymotrypsin [1] is given as “no inhibition was observed”.
For CC(=O)[C@H](CC(C)C)NC(=O)[C@H](C)NC(=O)CNC(=O)[C@H](Cc1ccccc1)NC(=O)OC(C)(C)C [Boc-Phe-Gly-Ala-LeuCH3, reference compound], the “activity in the viral cleavage assay” value [2] was “failed to show activity”.
For COC(=O)CCC(=O)N[C@@H](Cc1ccccc1)C(=O)NCC(=O)N[C@@H](C)C(=O)N[C@@H](CC(C)C)C(C)=O [MeOSuc-Phe-Gly-Ala-LeuCH3, MeOSuc--Phe--Gly--Ala--LeuCH3], the “activity in the viral cleavage assay” value [3] was “demonstrated activity”, the “Protease-Inhibiting Activity of Selected Peptide Chloromethyl Ketones: Activity” value [2] was “+++ (key: -: no activity; +/-: low activity; +: active at 100 μg/mL; ++: active at 50 μg/mL; +++: active at 10 μg/mL; ++++: active at <5 μg/mL)” and the “activity in the viral cleavage assay” value [4] was “demonstrated activity”.
In the case of COC(=O)CCC(=O)N[C@@H](Cc1ccccc1)C(=O)NCC(=O)N[C@@H](CC(C)C)C(=O)N[C@@H](CC(C)C)C(C)=O [MeOSuc-Phe-Gly-Leu-LeuCH3], the “Protease-Inhibiting Activity of Selected Peptide Chloromethyl Ketones: Activity” value [2] is reported as “+/-”.
For CC(=O)N[C@@H](Cc1ccccc1)C(=O)NCC(=O)N[C@@H](C)C(=O)NC(CC(C)C)C(=O)CCl (stereo partly drawn) [Peptide Analog 3, acetyl-L-phenylalanyl-L-glycyl-L-alanyl-L-leucyl chloromethyl ketone] (Ac-FGA[ξL]-CH2Cl), the “inhibition of subtilisin BPN' (rate, among the peptide chloromethyl ketones tested)” value [5] is given as “fastest inhibitor”.
With CC(=O)[C@H](CC(C)C)NC(=O)[C@H](C)NC(=O)CNC(=O)[C@H](Cc1ccccc1)NC(=O)OCc1ccccc1 [Z-Phe-Gly-Ala-LeuCH3] the “plaque reduction compared to control plates” value [6] was > 90%, the “plaque reduction compared to control plates” value [7] was > 90% and the “Protease-Inhibiting Activity of Selected Peptide Chloromethyl Ketones: Activity” value [2] was “+++ (key: -: no activity; +/-: low activity; +: active at 100 μg/mL; ++: active at 50 μg/mL; +++: active at 10 μg/mL; ++++: active at <5 μg/mL)”. For the same molecule, the cytotoxicity [8] was “No cytotoxicity was observed”.
With CC(=O)[C@H](CC(C)C)NC(=O)[C@H](CC(C)C)NC(=O)CNC(=O)[C@H](Cc1ccccc1)NC(=O)OCc1ccccc1 [Z-Phe-Gly-Leu-LeuCH3, N-carbobenzoxy-L-phenylalanyl-L-glycyl-L-leucyl-L-leucyl methyl ketone] the “Protease-Inhibiting Activity of Selected Peptide Chloromethyl Ketones: Activity” value [2] was “+++ (key: -: no activity; +/-: low activity; +: active at 100 μg/mL; ++: active at 50 μg/mL; +++: active at 10 μg/mL; ++++: active at <5 μg/mL)”.
